Assay results from patent US8471032B2, “Benzimidazole compound in crystal form and salt thereof” (Mitsubishi Tanabe Pharma Corporation, priority 2008, dated 2013).
In brackets after ≈: the same amount, converted by molar mass.

Tests used:
[1] = Water adsorption measurement (DVS-1 water adsorption apparatus), index of hygroscopicity; assay type: physicochemical; settings: relative humidity changed within 0% to 95%; amount of change based on the weight at relative humidity 0%
Description: The water adsorption measurement, which becomes an index of hygroscopicity, was performed using a DVS-1 type water adsorption apparatus (manufactured by SMS) under the following conditions. Using a sample (about 6-12 mg), the relative humidity was changed within the relative humidity range of 0% to 95%. The weight change was recorded for each predetermined relative humidity, and converted to the amount of change (%) based on the weight at relative humidity 0%. […] As to this compound, the zero point was amended based on the moisture value of the sample measured by the Karl Fischer's method, and the weight change was converted to the amount of change (%).

[2] = Solubility in water at 37° C. (HPLC, calibration curve method); assay type: physicochemical; settings: shaken for 4 hr
Description: The solubility of the obtained compounds in water at 37° C. was measured under the following conditions. An adequate amount of each sample was taken, water was added to each sample, and the mixture was shaken at 37° C. for 4 hr. The supernatant was filtered through a filter, and diluted with a mixed solution of TFA/acetonitrile/water=(0.05:30:70) as necessary to give a sample solution. The concentration (mg/ml) of the sample solution was measured by high performance liquid chromatography (HPLC) with a calibration curve method, and taken as the solubility in water at 37° C.
apparatus: HPLC System Class-VP (SHIMADZU Corporation)
detector: photodiode array detector
measurement wavelength range: 200-370 nm
column: Inertsil ODS-3V (4.6 mm9×150 mm)
column temperature: 40° C.
mobile phase: SOLUTION A 0.05% aqueous trifluoroacetic acid solution • SOLUTION B 0.05% trifluoroacetic acid-acetonitrile solution • A:B=70:30 (Isocratic Elution)

| SMILES | weight increase (water adsorption / moisture absorption) [1] [%] | solubility in water [2] [µg/mL] |
| --- | --- | --- |
| CNC(=O)Cn1c(=O)n(C2CCN([C@@H]3Cc4cccc5cccc3c45)CC2)c2ccccc21 [Example 6, (R)-2-{3-[1-(acenaphthen-1-yl)piperidin-4-yl]-2,3-dihydro-2-oxo-benzimidazol-1-yl}-N-methylacetamide] | 0.4 | > 2000 |
| CNC(=O)Cn1c(=O)n(C2CCN([C@@H]3Cc4cccc5cccc3c45)CC2)c2ccccc21 [Example 1, (R)-2-{3-[1-(acenaphthen-1-yl)piperidin-4-yl]-2,3-dihydro-2-oxo-benzimidazol-1-yl}-N-methylacetamide] | 0.2 | > 2000 |
| CNC(=O)Cn1c(=O)n(C2CCN([C@@H]3Cc4cccc5cccc3c45)CC2)c2ccccc21 [Example 17, (R)-2-{3-[1-(acenaphthen-1-yl)piperidin-4-yl]-2,3-dihydro-2-oxo-benzimidazol-1-yl}-N-methylacetamide] | – | 10 (≈ 22.7 µM) |
| CNC(=O)Cn1c(=O)n(C2CCN([C@@H]3Cc4cccc5cccc3c45)CC2)c2ccccc21 [Example 2, (R)-2-{3-[1-(acenaphthen-1-yl)piperidin-4-yl]-2,3-dihydro-2-oxo-benzimidazol-1-yl}-N-methylacetamide] | 0.2 | – |
| CNC(=O)Cn1c(=O)n(C2CCN([C@@H]3Cc4cccc5cccc3c45)CC2)c2ccccc21 [Example 10, (R)-2-{3-[1-(acenaphthen-1-yl)piperidin-4-yl]-2,3-dihydro-2-oxo-benzimidazol-1-yl}-N-methylacetamide] | 1.3 | 300 (≈ 681 µM) |
| CNC(=O)Cn1c(=O)n(C2CCN([C@@H]3Cc4cccc5cccc3c45)CC2)c2ccccc21 [Example 16, (R)-2-{3-[1-(acenaphthen-1-yl)piperidin-4-yl]-2,3-dihydro-2-oxo-benzimidazol-1-yl}-N-methylacetamide] | – | 10 (≈ 22.7 µM) |
| CNC(=O)Cn1c(=O)n(C2CCN([C@@H]3Cc4cccc5cccc3c45)CC2)c2ccccc21 [Example 8, (R)-2-{3-[1-(acenaphthen-1-yl)piperidin-4-yl]-2,3-dihydro-2-oxo-benzimidazol-1-yl}-N-methylacetamide] | 2.0 | – |
